Test results taken from the NIST ThermoML archive (doi:10.1016/j.jct.2017.08.004).

Assay: molar heat capacity at constant pressure
Conditions: 101.33 kPa

OC[C@H](O)C(O)[C@@H](O)CO [L-(-)-arabitol]
molar heat capacity at constant pressure [J/K/mol]
Conditions	Small sample (50 mg) DSC	relaxation calorimetry
1 K, Crystal	–	0.0009071
1.925 K, Crystal	–	0.00486
2 K, Crystal	–	0.00537
2.126 K, Crystal	–	0.006333
2.35 K, Crystal	–	0.008531
2.603 K, Crystal	–	0.01139
2.89 K, Crystal	–	0.01551
3 K, Crystal	–	0.01737
3.204 K, Crystal	–	0.02118
3.551 K, Crystal	–	0.02864
3.938 K, Crystal	–	0.03916
4 K, Crystal	–	0.04172
4.366 K, Crystal	–	0.05484
4.845 K, Crystal	–	0.07705
5 K, Crystal	–	0.08452
5.374 K, Crystal	–	0.1069
5.962 K, Crystal	–	0.1505
6 K, Crystal	–	0.1535
6.615 K, Crystal	–	0.2138
7 K, Crystal	–	0.26
7.345 K, Crystal	–	0.3087
8 K, Crystal	–	0.4176
8.151 K, Crystal	–	0.4472
9 K, Crystal	–	0.6348
9.046 K, Crystal	–	0.6445
10 K, Crystal	–	0.9169
10.12 K, Crystal	–	0.9515
11.21 K, Crystal	–	1.346
12.43 K, Crystal	–	1.885
13.79 K, Crystal	–	2.589
15 K, Crystal	–	3.316
15.3 K, Crystal	–	3.507
16.99 K, Crystal	–	4.683
18.86 K, Crystal	–	6.145
20 K, Crystal	–	7.063
21 K, Crystal	–	7.93
23.34 K, Crystal	–	10
25 K, Crystal	–	11.59
25.89 K, Crystal	–	12.41
28.74 K, Crystal	–	15.2
30 K, Crystal	–	16.48
31.91 K, Crystal	–	18.4
35 K, Crystal	–	21.5
35.44 K, Crystal	–	21.96
39.34 K, Crystal	–	25.96
40 K, Crystal	–	26.56
43.67 K, Crystal	–	30.28
45 K, Crystal	–	31.57
48.47 K, Crystal	–	34.84
50 K, Crystal	–	36.42
53.79 K, Crystal	–	39.93
55 K, Crystal	–	41.06
59.71 K, Crystal	–	45.44
60 K, Crystal	–	45.6
65 K, Crystal	–	50.22
66.3 K, Crystal	–	51.38
70 K, Crystal	–	54.55
73.59 K, Crystal	–	57.52
75 K, Crystal	–	58.73
80 K, Crystal	–	62.81
81.71 K, Crystal	–	64.34
85 K, Crystal	–	66.8
90 K, Crystal	–	70.7
90.67 K, Crystal	–	71.56
95 K, Crystal	–	74.53
100 K, Crystal	–	78.28
100.62 K, Crystal	–	78.32
110 K, Crystal	–	85.55
110.77 K, Crystal	–	85.86
120 K, Crystal	–	92.52
120.75 K, Crystal	–	93.29
130 K, Crystal	–	99.22
130.83 K, Crystal	–	99.89
140 K, Crystal	–	105.69
141 K, Crystal	–	106.35
150 K, Crystal	–	111.98
151.08 K, Crystal	–	112.59
160 K, Crystal	–	118.13
161.19 K, Crystal	–	118.71
170 K, Crystal	–	124.19
171.26 K, Crystal	–	124.81
180 K, Crystal	–	130.18
181.32 K, Crystal	–	131.15
188.15 K, Crystal	129.04	–
189.15 K, Crystal	130.57	–
190 K, Crystal	–	136.16
190.15 K, Crystal	131.98	–
191.15 K, Crystal	132.97	–
191.4 K, Crystal	–	137.23
192.15 K, Crystal	133.65	–
193.15 K, Crystal	134.27	–
194.15 K, Crystal	135.12	–
195.15 K, Crystal	135.91	–
196.15 K, Crystal	136.66	–
197.15 K, Crystal	137.42	–
198.15 K, Crystal	138.16	–
199.15 K, Crystal	138.8	–
200 K, Crystal	–	142.15
200.15 K, Crystal	139.49	–
201.15 K, Crystal	140.3	–
201.57 K, Crystal	–	142.67
202.15 K, Crystal	141.06	–
203.15 K, Crystal	141.64	–
204.15 K, Crystal	142.39	–
205.15 K, Crystal	143.02	–
206.15 K, Crystal	143.74	–
207.15 K, Crystal	144.43	–
208.15 K, Crystal	145.06	–
209.15 K, Crystal	145.72	–
210 K, Crystal	–	148.19
210.15 K, Crystal	146.38	–
211.15 K, Crystal	147.05	–
211.68 K, Crystal	–	149.03
212.15 K, Crystal	147.72	–
213.15 K, Crystal	148.33	–
214.15 K, Crystal	149.06	–
215.15 K, Crystal	149.6	–
216.15 K, Crystal	150.38	–
217.15 K, Crystal	151.13	–
218.15 K, Crystal	152.05	–
219.15 K, Crystal	152.76	–
220 K, Crystal	–	154.3
220.15 K, Crystal	153.39	–
221.15 K, Crystal	153.99	–
221.77 K, Crystal	–	155.91
222.15 K, Crystal	154.72	–
223.15 K, Crystal	155.35	–
224.15 K, Crystal	155.94	–
225.15 K, Crystal	156.64	–
226.15 K, Crystal	157.32	–
227.15 K, Crystal	157.87	–
228.15 K, Crystal	158.58	–
229.15 K, Crystal	159.08	–
230 K, Crystal	–	160.49
230.15 K, Crystal	159.71	–
231.15 K, Crystal	160.4	–
231.87 K, Crystal	–	161.72
232.15 K, Crystal	160.98	–
233.15 K, Crystal	161.67	–
234.15 K, Crystal	162.2	–
235.15 K, Crystal	162.87	–
236.15 K, Crystal	163.51	–
237.15 K, Crystal	164.14	–
238.15 K, Crystal	164.86	–
239.15 K, Crystal	165.4	–
240 K, Crystal	–	166.8
240.15 K, Crystal	166.04	–
241.15 K, Crystal	166.73	–
241.87 K, Crystal	–	168.05
242.15 K, Crystal	167.44	–
243.15 K, Crystal	168.16	–
244.15 K, Crystal	168.75	–
245.15 K, Crystal	169.35	–
246.15 K, Crystal	169.88	–
247.15 K, Crystal	170.55	–
248.15 K, Crystal	171.06	–
249.15 K, Crystal	171.85	–
250 K, Crystal	–	173.24
250.15 K, Crystal	172.59	–
251.15 K, Crystal	173.21	–
251.96 K, Crystal	–	174.6
252.15 K, Crystal	173.86	–
253.15 K, Crystal	174.57	–
254.15 K, Crystal	175.18	–
255.15 K, Crystal	176.03	–
256.15 K, Crystal	176.9	–
257.15 K, Crystal	177.61	–
258.15 K, Crystal	178.4	–
259.15 K, Crystal	179.26	–
260 K, Crystal	–	179.82
260.15 K, Crystal	180.04	–
261.15 K, Crystal	180.97	–
262.07 K, Crystal	–	180.97
262.15 K, Crystal	181.78	–
263.15 K, Crystal	182.59	–
264.15 K, Crystal	183.52	–
265.15 K, Crystal	184.23	–
266.15 K, Crystal	184.83	–
267.15 K, Crystal	185.69	–
268.15 K, Crystal	186.57	–
269.15 K, Crystal	187.58	–
270 K, Crystal	–	186.56
270.15 K, Crystal	188.37	–
271.15 K, Crystal	189.06	–
272.13 K, Crystal	–	188.16
272.15 K, Crystal	189.78	–
273.15 K, Crystal	190.61	188.71
274.15 K, Crystal	191.19	–
275.15 K, Crystal	191.83	–
276.15 K, Crystal	192.48	–
277.15 K, Crystal	193.16	–
278.15 K, Crystal	193.84	–
279.15 K, Crystal	194.6	–
280 K, Crystal	–	193.46
280.15 K, Crystal	195.16	–
281.15 K, Crystal	195.85	–
282.15 K, Crystal	196.47	–
282.16 K, Crystal	–	194.74
283.15 K, Crystal	197.03	–
284.15 K, Crystal	197.67	–
285.15 K, Crystal	198.35	–
286.15 K, Crystal	198.9	–
287.15 K, Crystal	199.37	–
288.15 K, Crystal	200.05	–
289.15 K, Crystal	200.75	–
290 K, Crystal	–	200.53
290.15 K, Crystal	201.49	–
291.15 K, Crystal	202.11	–
292.15 K, Crystal	202.64	–
292.27 K, Crystal	–	201.73
293.15 K, Crystal	203.3	–
294.15 K, Crystal	203.94	–
295.15 K, Crystal	204.77	–
296.15 K, Crystal	205.37	–
297.15 K, Crystal	206.12	–
298.15 K, Crystal	206.77	206.44
299.15 K, Crystal	207.42	–
300 K, Crystal	–	207.8
300.15 K, Crystal	208.27	–
301.15 K, Crystal	209.11	–
302.15 K, Crystal	209.85	–
302.3 K, Crystal	–	209.95
303.15 K, Crystal	210.71	–
304.15 K, Crystal	211.4	–
305 K, Crystal	212.36	–
305.15 K, Crystal	212.38	–
306.15 K, Crystal	213.15	–
307.15 K, Crystal	214.11	–
308.15 K, Crystal	215.16	–
309.15 K, Crystal	216.11	–
310 K, Crystal	217.12	–
310.15 K, Crystal	217.05	–
311.15 K, Crystal	218.22	–
312.15 K, Crystal	219.18	–
313.15 K, Crystal	220.1	–
314.15 K, Crystal	221.04	–
315 K, Crystal	221.96	–
315.15 K, Crystal	222.13	–
316.15 K, Crystal	223.18	–
317.15 K, Crystal	224.21	–
318.15 K, Crystal	225.16	–
319.15 K, Crystal	226.14	–
320 K, Crystal	226.85	–
320.15 K, Crystal	227.12	–
321.15 K, Crystal	228.27	–
322.15 K, Crystal	229.22	–
323.15 K, Crystal	230.47	–
324.15 K, Crystal	231.33	–
325 K, Crystal	231.9	–
325.15 K, Crystal	232.46	–
326.15 K, Crystal	233.49	–
327.15 K, Crystal	234.58	–
328.15 K, Crystal	235.6	–
329.15 K, Crystal	236.61	–
330 K, Crystal	237.4	–
330.15 K, Crystal	237.74	–
331.15 K, Crystal	238.74	–
332.15 K, Crystal	239.92	–
333.15 K, Crystal	241.19	–
335 K, Crystal	243.8	–
340 K, Crystal	251.69	–
345 K, Crystal	261.85	–
387.05 K, Liquid	440.32	–
387.15 K, Liquid	440.19	–
388.15 K, Liquid	440.32	–
389.15 K, Liquid	440.39	–
390 K, Liquid	440.74	–
390.15 K, Liquid	440.65	–
391.15 K, Liquid	440.67	–
392.15 K, Liquid	440.92	–
393.15 K, Liquid	441.37	–
394.15 K, Liquid	441.72	–
395 K, Liquid	442.06	–
395.15 K, Liquid	441.9	–
396.15 K, Liquid	442.46	–
397.15 K, Liquid	443.18	–
398.15 K, Liquid	443.38	–
399.15 K, Liquid	443.7	–
400 K, Liquid	443.76	–
400.15 K, Liquid	444.18	–
401.15 K, Liquid	444.55	–
402.15 K, Liquid	444.8	–
403.15 K, Liquid	445.3	–
404.15 K, Liquid	445.48	–
405 K, Liquid	445.85	–
405.15 K, Liquid	445.82	–
406.15 K, Liquid	446.12	–
407.15 K, Liquid	446.57	–
408.15 K, Liquid	447.22	–
409.15 K, Liquid	447.57	–
410 K, Liquid	448.32	–
410.15 K, Liquid	448.06	–
411.15 K, Liquid	448.75	–
412.15 K, Liquid	449.48	–
413.15 K, Liquid	450.17	–
414.15 K, Liquid	450.82	–
415 K, Liquid	451.18	–
415.15 K, Liquid	451.25	–
416.15 K, Liquid	451.74	–
417.15 K, Liquid	452.58	–
418.15 K, Liquid	453.6	–
